Data on one molecule can be found in publication PMC10401708, “Enzymatic Hydroxylation of Aliphatic C–H Bonds by a Mn/Fe Cofactor” (Journal of the American Chemical Society, 2023).

Each structure is given as a SMILES string.

Experiment [1] deals with T1, AibH1H2 (Rhodococcus wratislaviensis, UniProt A0A402C2Q3).
T1 construct: gene Rhow_000803; recombinant, E. coli BL21(DE3), pET-Duet-AibH1H2 with GroEL/ES-TF; His6-tagged; (alpha-beta)2 heterotetramer; Mn-grown (MnAibH1H2), Fe(II) added; with 2-aminoisobutyric acid hydroxylase subunit AibH1 (amidohydrolase family protein)
In words: GC-MS of silylated D-MeSer product. Type of experiment: biochemical. The following applies: preliminary estimate; O2, ascorbate as reductant, 1 equiv Fe(II) added to Mn-grown enzyme; 20 mM HEPES pH 8.0, 30 °C.

Experiment [2] deals with T2, AibH1H2 (Rhodococcus wratislaviensis, UniProt A0A402C2Q3, D342A).
T2 construct: gene Rhow_000803; recombinant, E. coli BL21(DE3), pET-Duet-AibH1H2 with GroEL/ES-TF; His6-tagged; (alpha-beta)2 heterotetramer; Mn-grown (MnAibH1H2), Fe(II) added; with 2-aminoisobutyric acid hydroxylase subunit AibH1 (amidohydrolase family protein)
In words: enzymatic activity assay (GC-MS). The class given is biochemical. The conditions noted are these: diminished activity although all metals are incorporated.

T1 sequence (A0A402C2Q3 entry or part of it): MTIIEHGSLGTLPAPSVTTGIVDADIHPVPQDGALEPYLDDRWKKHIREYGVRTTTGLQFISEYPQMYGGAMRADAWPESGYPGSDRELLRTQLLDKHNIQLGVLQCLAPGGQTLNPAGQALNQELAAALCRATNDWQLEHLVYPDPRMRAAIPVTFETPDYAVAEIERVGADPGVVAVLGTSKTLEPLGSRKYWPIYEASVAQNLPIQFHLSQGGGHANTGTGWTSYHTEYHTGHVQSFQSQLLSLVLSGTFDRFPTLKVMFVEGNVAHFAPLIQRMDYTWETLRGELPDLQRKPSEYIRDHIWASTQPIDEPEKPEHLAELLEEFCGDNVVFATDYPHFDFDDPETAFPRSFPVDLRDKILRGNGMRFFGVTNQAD
T1 sequence (A0A402C2V4 entry or part of it, further chain): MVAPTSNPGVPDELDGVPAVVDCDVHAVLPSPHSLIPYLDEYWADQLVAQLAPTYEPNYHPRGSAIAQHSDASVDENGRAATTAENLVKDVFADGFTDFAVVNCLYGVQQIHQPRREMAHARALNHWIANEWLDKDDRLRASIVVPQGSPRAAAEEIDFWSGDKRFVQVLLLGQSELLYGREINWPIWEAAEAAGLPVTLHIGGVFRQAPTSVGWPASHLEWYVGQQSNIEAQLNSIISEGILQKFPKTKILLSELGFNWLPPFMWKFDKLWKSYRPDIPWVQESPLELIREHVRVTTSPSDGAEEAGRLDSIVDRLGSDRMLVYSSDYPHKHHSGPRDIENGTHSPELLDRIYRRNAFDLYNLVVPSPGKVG
T2 sequence (A0A402C2V4 entry or part of it, stated change not applied): as the sequence (A0A402C2V4 entry or part of it, further chain) above
T2 sequence (A0A402C2Q3 entry or part of it D342A): as the sequence (A0A402C2Q3 entry or part of it) above, with D342A counted along it

As a reminder, the Km is the concentration of substrate that gives half-maximal velocity. Consider `CC(C)(N)C(=O)O` [AIB, 2-aminoisobutyric acid], for which, in experiment [1], the Km is over 100 mM. Further, in experiment [2], the “enzymatic activity assay (GC-MS)” value is on record as “upon substitution to alanine, results in protein with diminished enzymatic activity”.
